ChEMBL document CHEMBL1201862, “PubChem BioAssay data set” (2004)
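Where inhibition never reached the appropriate level, the endpoint shown equals the highest concentration tested. Otherwise, values were interpolated linearly from a five-concentration, 48-hour dose response in 96-well plates. GI50: concentration for 50% inhibition of growth.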 The source made the active and inactive calls. Rule as the data show it: active = GI50 up to about 1.1 µM and inactive = higher.

What was measured:
Experiment in all cases: inhibition of tumour cell growth, NCI panel, 48 h
[1] = system: SK-MEL-28
[2] = system: NCI/ADR-RES
[3] = system: UACC-62
[4] = system: DU-145
[5] = system: MDA-MB-231
[6] = system: SR
[7] = system: HT-29
[8] = system: ACHN
[9] = system: HCT-116
[10] = system: SNB-19
[11] = system: OVCAR-5
[12] = system: HOP-92
[13] = system: SK-MEL-5
[14] = system: TK-10
[15] = system: HCT-15
[16] = system: OVCAR-4
[17] = system: OVCAR-8
[18] = system: M14
[19] = system: SW-620
[20] = system: SK-MEL-2

| SMILES | GI50 [1] | GI50 [2] | GI50 [3] | GI50 [4] | GI50 [5] | GI50 [6] | GI50 [7] | GI50 [8] | GI50 [9] | GI50 [10] | GI50 [11] | GI50 [12] | GI50 [13] | GI50 [14] | GI50 [15] [µM] | GI50 [16] | GI50 [17] | GI50 [18] | GI50 [19] | GI50 [20] |
| --- | --- | --- | --- | --- | --- | --- | --- | --- | --- | --- | --- | --- | --- | --- | --- | --- | --- | --- | --- | --- |
| O=C1N[C@H]2C(=O)c3c(Br)sc(Br)c3[C@H]2O1 | 3.41 µM (inactive) | 13.4 µM (inactive) | 13.6 µM (inactive) | 13.2 µM (inactive) | 8.83 µM (inactive) | 1.87 µM (inactive) | 2.47 µM (inactive) | 6.78 µM (inactive) | 2.77 µM (inactive) | 15.9 µM (inactive) | 17.7 µM (inactive) | 14.6 µM (inactive) | 14 µM (inactive) | 22 µM (inactive) | 1.95 | 15.3 µM (inactive) | 3.82 µM (inactive) | 3.08 µM (inactive) | 2.17 µM (inactive) | 14.7 µM (inactive) |
| COCn1c(C)c(C)c2c(=O)oc(N(C)C)nc21 | > 100 µM (inactive) | > 100 µM (inactive) | > 100 µM (inactive) | > 100 µM (inactive) | > 100 µM (inactive) | > 100 µM (inactive) | > 100 µM (inactive) | > 100 µM (inactive) | > 100 µM (inactive) | 67 µM (inactive) | > 100 µM (inactive) | > 100 µM (inactive) | > 100 µM (inactive) | > 100 µM (inactive) | > 100 | > 100 µM (inactive) | > 100 µM (inactive) | > 100 µM (inactive) | > 100 µM (inactive) | > 100 µM (inactive) |
| CCOC(=O)NC(NC(C)CC)(C(F)(F)F)C(F)(F)F (stereo not given) | > 100 µM (inactive) | > 100 µM (inactive) | > 100 µM (inactive) | > 100 µM (inactive) | > 100 µM (inactive) | > 100 µM (inactive) | > 100 µM (inactive) | > 100 µM (inactive) | > 100 µM (inactive) | > 100 µM (inactive) | > 100 µM (inactive) | > 100 µM (inactive) | > 100 µM (inactive) | > 100 µM (inactive) | > 100 | > 100 µM (inactive) | > 100 µM (inactive) | > 100 µM (inactive) | 42.3 µM (inactive) | > 100 µM (inactive) |
| O=C(Cc1nc2ccc([N+](=O)[O-])cc2nc1O)C(=O)Nc1cc(Cl)c(Cl)cc1Cl | > 100 µM (inactive) | > 100 µM (inactive) | > 100 µM (inactive) | > 100 µM (inactive) | > 100 µM (inactive) | 41.8 µM (inactive) | > 100 µM (inactive) | > 100 µM (inactive) | > 100 µM (inactive) | > 100 µM (inactive) | > 100 µM (inactive) | > 100 µM (inactive) | > 100 µM (inactive) | > 100 µM (inactive) | > 100 | > 100 µM (inactive) | > 100 µM (inactive) | > 100 µM (inactive) | > 100 µM (inactive) | > 100 µM (inactive) |
| O=C1Nc2ccc(S(=O)(=O)O)cc2/C1=C1/Nc2ccc(Br)cc2C1=O | > 100 µM (inactive) | > 100 µM (inactive) | > 100 µM (inactive) | > 100 µM (inactive) | > 100 µM (inactive) | > 100 µM (inactive) | > 100 µM (inactive) | > 100 µM (inactive) | > 100 µM (inactive) | > 100 µM (inactive) | > 100 µM (inactive) | > 100 µM (inactive) | > 100 µM (inactive) | > 100 µM (inactive) | > 100 | > 100 µM (inactive) | > 100 µM (inactive) | > 100 µM (inactive) | > 100 µM (inactive) | > 100 µM (inactive) |
| CCCCCCCCCCCCCCCCCCNc1ccn(C2OC(COP(=O)(O)OCC(COP(=O)(O)OCC3OC(n4cc(C)c(=O)[nH]c4=O)CC3N=[N+]=[N-])OCCCCCCCCCCCCCCCCCC)C(O)C2O)c(=O)n1 (stereo not given) | > 100 µM (inactive) | > 100 µM (inactive) | 49.5 µM (inactive) | > 100 µM (inactive) | 44.3 µM (inactive) | > 100 µM (inactive) | 28.5 µM (inactive) | > 100 µM (inactive) | 56.8 µM (inactive) | 19.4 µM (inactive) | 76.9 µM (inactive) | 20.3 µM (inactive) | 86.5 µM (inactive) | > 100 µM (inactive) | 34 | 70.5 µM (inactive) | 60.5 µM (inactive) | > 100 µM (inactive) | > 100 µM (inactive) | > 100 µM (inactive) |
| CCOC(=O)Nc1cc2c(c(N)n1)N=C(c1ccc3ccccc3c1)CN2 | 1.95 µM (inactive) | 0.0335 µM (active) | 0.0328 µM (active) | 0.101 µM (active) | 2.39 µM (inactive) | 0.0329 µM (active) | 0.301 µM (active) | 0.258 µM (active) | 0.0225 µM (active) | 0.0614 µM (active) | 10.5 µM (inactive) | 0.275 µM (active) | < 0.0164 µM (active) | 4.36 µM (inactive) | 0.0189 | 1.44 µM (inactive) | < 0.0208 µM (active) | 0.617 µM (active) | 0.0485 µM (active) | 0.373 µM (active) |
| Clc1ccc(C(c2ccccc2Cl)C(Cl)Cl)cc1 (stereo not given) [MITOTANE] | 18.9 µM (inactive) | 15.3 µM (inactive) | 14.8 µM (inactive) | 3.3 µM (inactive) | 3.39 µM (inactive) | 18.7 µM (inactive) | 16.8 µM (inactive) | 14.8 µM (inactive) | 13.2 µM (inactive) | 17.6 µM (inactive) | 18 µM (inactive) | 13 µM (inactive) | 15.8 µM (inactive) | 20 µM (inactive) | 15.8 | 16 µM (inactive) | 20.7 µM (inactive) | 19.3 µM (inactive) | 18 µM (inactive) | 18.3 µM (inactive) |
| COC(=O)/C=C/COCC1C2CCC(=O)C21 (stereo not given) | > 100 µM (inactive) | > 100 µM (inactive) | > 100 µM (inactive) | > 100 µM (inactive) | > 100 µM (inactive) | > 100 µM (inactive) | > 100 µM (inactive) | > 100 µM (inactive) | > 100 µM (inactive) | > 100 µM (inactive) | > 100 µM (inactive) | > 100 µM (inactive) | > 100 µM (inactive) | > 100 µM (inactive) | > 100 | > 100 µM (inactive) | > 100 µM (inactive) | > 100 µM (inactive) | > 100 µM (inactive) | > 100 µM (inactive) |
| O=C(O)C1CC=CCC1C(=O)Nc1cccc(O)c1 (stereo not given) | > 100 µM (inactive) | > 100 µM (inactive) | > 100 µM (inactive) | > 100 µM (inactive) | > 100 µM (inactive) | > 100 µM (inactive) | > 100 µM (inactive) | > 100 µM (inactive) | > 100 µM (inactive) | > 100 µM (inactive) | > 100 µM (inactive) | > 100 µM (inactive) | > 100 µM (inactive) | > 100 µM (inactive) | > 100 | > 100 µM (inactive) | > 100 µM (inactive) | > 100 µM (inactive) | > 100 µM (inactive) | > 100 µM (inactive) |
